# Measured values from patent publication US11246314B2, “Trichome and pistil maturing formulation” (priority 2015, dated 2022).
# Tests used:
# Format in all cases: in vivo
# Details in all cases: in words
# [1] = system: pistils of Cannabis plants; test: Pistil maturation on sprayed Cannabis plants
# Source text: (§1) Trials were done with sesame oil alone, in place of bud finisher and bud shield embodiments.
# (§2) Add all ingredients to a gallon of water 7. Shake or mix well. Pour the final mixture 8 through a double mesh screen 41, into a convenient applicator such as a spray bottle 9 shown in FIG. 6. Apply directly to plants 10 over and under the leaves and flowers and upon the soil. Plant foliage should be sprayed on all surfaces until the solution is dripping off. Spray every 1-7 days as preferred as illustrated in FIG. 7.
# powdery mildew = test: Control of powdery mildew, mold and mildew on plants
# Source text: as §1
# [2] = system: trichomes of Cannabis plants; test: Trichome maturation on sprayed Cannabis plants
# Source text: as §1, §2
smiles,measurement,setting,value
O=C([O-])O.[K+] [Potassium bicarbonate],effect on pistil maturation,[1],fully matures pistils quickly
same,efficacy against powdery mildew / mold and mildew,powdery mildew,very effective
same,effect on trichome maturation,[2],little to no effect
